Data taken from ChEMBL document CHEMBL4842328, “A cyclic peptide inhibitor of the SARS-CoV-2 main protease” (Eur J Med Chem, 2021).
Calls of active or inactive are those of the source. The rule behind the calls is not given here. Numbered stars: 1 amine (or outer) side, 2 acyl side, 3 side chain; on linkers, the order of the positions; unused ones are H or OH. Square brackets hold non-standard residues; d marks the D form. Peptide text beside a SMILES is read from it. * marks the point of attachment. X2 = O=C(Cc1ccc(CCN[*:1])cc1)[*:2]; X1 = NC(=O)Cc1ccc(CCN*)cc1

Tests used:
[1] = Inhibition of SARS-CoV-2 main protease using K(Dabcy1)-TSAVLQSGFRKM-E-Edans-NH2 as substrate preincubated with enzyme for 30 mins followed by substrate addition by FRET assay; design: species or system Severe acute respiratory syndrome coronavirus 2
[2] = tested on: Severe acute respiratory syndrome coronavirus 2; assay: Inhibition of SARS-CoV-2 main protease using K(Dabcy1)-TSAVLQSGFRKM-E-Edans-NH2 as substrate at <=750 uM preincubated with enzyme for 30 mins followed by substrate addition by FRET assay; conditions: dose microM <=750, time 30.0 min
[3] = Stability of the compound assessed as SARS-CoV-2 main protease-mediated compound cleavage at 187.5 uM measured after 4 hrs by LC/MS analysis; format: ADME; conditions: severe acute respiratory syndrome coronavirus 2, 4 h
[4] = tested on: HEK293; assay: Cytotoxicity against human HEK293 assessed as reduction in cell viability upto 256 uM after 72 hrs by LDH assay; format: cell-based; conditions: hek293, 72 h

SMILES	IC50 [1] [µM]	inhibition [2]	Stabilty [3]	Activity [4]
CC(=O)N[C@@H](Cc1ccccc1)C(=O)N[C@@H](CCC(N)=O)C(=O)N[C@@H](CO)C(=O)N[C@@H](CCCCN)C(=O)NCCc1ccc(CC(N)=O)cc1 (Ac-FQSK-X1)	> 1500	inactive		
NCCCC[C@@H]1NC(=O)[C@H](CO)NC(=O)[C@H](CCC(N)=O)NC(=O)[C@H](Cc2ccccc2)NC(=O)Cc2ccc(cc2)CCNC1=O.O=C(O)C(F)(F)F (cyclo(FQSK[X2]))			Stable	Non-Toxic
NCCCC[C@@H]1NC(=O)[C@H](CO)NC(=O)[C@H](CCC(N)=O)NC(=O)[C@@H](Cc2ccccc2)NC(=O)Cc2ccc(cc2)CCNC1=O (cyclo([dF]QSK[X2]))	> 1500			
